Structures are written as SMILES. Bounds are passed on as bounds.

Our source for the IC50 values is patent US9458110B2, “Phenylpyrazole derivatives as potent ROCK1 and ROCK2 inhibitors” (BRISTOL-MYERS SQUIBB COMPANY, priority 2013, dated 2016).

Experiment [1] addresses ROCK1 (Homo sapiens (Human), UniProt Q13464). The experiment in a line: ROCK assay (Caliper LABCHIP peptide phosphorylation), ROCK1.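 Note: Read-out is separation of phosphorylated from unphosphorylated peptide, with kinase activity inhibition computed at every concentration of a dose-response series.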 The format is biochemical. As to conditions: 5 μM ATP, 1.5 μM peptide substrate.
Experiment [2] deals with ROCK2 (Homo sapiens (Human), UniProt O75116). The experiment in a line: ROCK assay (Caliper LABCHIP peptide phosphorylation), ROCK2.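 Note: reaction stopped with EDTA, then phosphorylated and unphosphorylated peptide resolved by microfluidic electrophoresis, kinase inhibition computed at each compound concentration in dose-response series, DMSO under 2%.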 It counts as biochemical. As to conditions: 5 μM ATP, 1.5 μM peptide substrate.
Sequence of ROCK2 (O75116 whole entry, species assumed): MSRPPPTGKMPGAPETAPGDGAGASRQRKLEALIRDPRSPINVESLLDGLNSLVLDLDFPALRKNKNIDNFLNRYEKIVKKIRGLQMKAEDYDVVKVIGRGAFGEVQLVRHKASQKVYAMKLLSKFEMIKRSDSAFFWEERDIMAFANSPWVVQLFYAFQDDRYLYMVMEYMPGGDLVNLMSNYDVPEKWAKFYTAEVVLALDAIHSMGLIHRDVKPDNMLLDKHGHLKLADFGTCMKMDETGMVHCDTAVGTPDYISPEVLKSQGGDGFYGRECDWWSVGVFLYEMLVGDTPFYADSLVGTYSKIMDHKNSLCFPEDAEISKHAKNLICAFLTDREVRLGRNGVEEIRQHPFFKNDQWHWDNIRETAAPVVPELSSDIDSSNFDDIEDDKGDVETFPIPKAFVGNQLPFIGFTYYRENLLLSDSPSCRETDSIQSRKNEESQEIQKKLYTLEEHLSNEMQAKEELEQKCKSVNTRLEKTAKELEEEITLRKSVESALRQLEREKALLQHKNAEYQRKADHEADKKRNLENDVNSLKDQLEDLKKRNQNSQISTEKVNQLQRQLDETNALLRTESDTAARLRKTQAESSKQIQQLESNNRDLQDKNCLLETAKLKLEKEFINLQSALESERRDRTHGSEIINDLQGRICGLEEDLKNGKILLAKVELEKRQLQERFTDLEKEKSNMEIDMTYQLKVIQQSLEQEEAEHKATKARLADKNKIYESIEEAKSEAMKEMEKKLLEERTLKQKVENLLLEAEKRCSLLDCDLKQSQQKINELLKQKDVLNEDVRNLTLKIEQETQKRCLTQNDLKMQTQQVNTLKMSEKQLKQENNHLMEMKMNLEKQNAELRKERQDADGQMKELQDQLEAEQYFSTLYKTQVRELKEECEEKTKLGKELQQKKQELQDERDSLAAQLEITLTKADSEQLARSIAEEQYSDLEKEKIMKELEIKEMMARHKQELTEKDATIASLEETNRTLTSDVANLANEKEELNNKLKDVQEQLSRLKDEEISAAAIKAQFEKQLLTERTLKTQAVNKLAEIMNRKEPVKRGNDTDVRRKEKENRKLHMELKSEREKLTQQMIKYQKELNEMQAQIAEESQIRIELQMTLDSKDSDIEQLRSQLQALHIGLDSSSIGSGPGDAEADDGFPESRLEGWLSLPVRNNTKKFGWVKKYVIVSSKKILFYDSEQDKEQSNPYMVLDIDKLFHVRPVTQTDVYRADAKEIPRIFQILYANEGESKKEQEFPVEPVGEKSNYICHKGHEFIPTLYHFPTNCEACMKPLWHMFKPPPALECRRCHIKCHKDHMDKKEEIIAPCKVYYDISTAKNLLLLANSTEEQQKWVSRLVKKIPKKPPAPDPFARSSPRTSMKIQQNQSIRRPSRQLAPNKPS

Sequence of ROCK1 (Q13464 whole entry, species assumed): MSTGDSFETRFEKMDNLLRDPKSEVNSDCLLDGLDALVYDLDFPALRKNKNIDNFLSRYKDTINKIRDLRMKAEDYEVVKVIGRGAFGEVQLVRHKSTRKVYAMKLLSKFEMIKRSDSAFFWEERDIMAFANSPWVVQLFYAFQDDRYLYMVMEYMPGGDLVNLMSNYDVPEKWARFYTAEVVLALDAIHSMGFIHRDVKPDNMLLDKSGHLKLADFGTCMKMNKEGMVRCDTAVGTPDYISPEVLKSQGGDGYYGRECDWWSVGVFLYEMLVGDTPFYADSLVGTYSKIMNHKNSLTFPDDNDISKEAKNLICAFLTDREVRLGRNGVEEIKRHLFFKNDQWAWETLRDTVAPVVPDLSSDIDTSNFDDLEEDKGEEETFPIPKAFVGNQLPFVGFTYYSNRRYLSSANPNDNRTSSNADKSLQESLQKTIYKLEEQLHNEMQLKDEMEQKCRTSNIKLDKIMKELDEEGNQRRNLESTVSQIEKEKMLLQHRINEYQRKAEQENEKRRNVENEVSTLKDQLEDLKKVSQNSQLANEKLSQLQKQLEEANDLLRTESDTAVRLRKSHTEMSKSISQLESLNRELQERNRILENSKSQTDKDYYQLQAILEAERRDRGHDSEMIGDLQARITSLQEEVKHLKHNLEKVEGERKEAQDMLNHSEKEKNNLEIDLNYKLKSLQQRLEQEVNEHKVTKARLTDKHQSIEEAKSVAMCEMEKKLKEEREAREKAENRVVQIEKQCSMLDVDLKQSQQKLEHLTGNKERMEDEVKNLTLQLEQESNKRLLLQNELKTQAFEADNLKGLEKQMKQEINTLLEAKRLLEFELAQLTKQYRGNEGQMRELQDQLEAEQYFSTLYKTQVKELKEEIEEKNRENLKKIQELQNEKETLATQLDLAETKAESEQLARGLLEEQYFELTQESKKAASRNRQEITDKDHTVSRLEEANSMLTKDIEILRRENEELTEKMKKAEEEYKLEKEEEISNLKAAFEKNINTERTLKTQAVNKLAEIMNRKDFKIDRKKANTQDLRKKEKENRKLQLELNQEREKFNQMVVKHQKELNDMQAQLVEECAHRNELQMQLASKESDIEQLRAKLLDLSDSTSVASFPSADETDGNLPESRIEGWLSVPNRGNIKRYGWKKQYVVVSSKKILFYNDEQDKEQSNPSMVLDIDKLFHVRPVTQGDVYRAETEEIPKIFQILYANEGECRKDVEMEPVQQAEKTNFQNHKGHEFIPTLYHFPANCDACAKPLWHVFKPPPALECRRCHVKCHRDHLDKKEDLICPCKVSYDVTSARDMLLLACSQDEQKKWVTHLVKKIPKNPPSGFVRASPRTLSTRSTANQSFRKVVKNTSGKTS

For `COc1cc(-c2cn[nH]c2)ccc1C(=O)NC(CO)c1ccccc1F` (stereo not drawn) [Example 205, N-[1-(2-fluorophenyl)-2-hydroxyethyl]-2-methoxy-4-(1H-pyrazol-4-yl)benzamide], the figures for the 50% inhibitory concentration (IC50) in experiment [1] and in experiment [2] were 345 nM and 5.62 nM, respectively.

With `COC(=O)c1cccc(CNC(=O)c2ccc(-c3cn[nH]c3)c(OC)c2)c1` [Example 8, methyl 3-((3-methoxy-4-(1H-pyrazol-4-yl)benzamido)methyl)benzoate], 0.85 nM corresponded to half-maximal inhibition in experiment [2] (IC50).

Take `COc1cc(C(=O)NC(CCO)c2ccccc2)ccc1-c1cn[nH]c1` (stereo not drawn) [Example 145, N-(3-hydroxy-1-phenylpropyl)-3-methoxy-4-(1H-pyrazol-4-yl)benzamide]: the IC50 in experiment [1] is 301 nM; in experiment [2] it was 282 nM.

Take `COc1cc(C(=O)NC(CN2CCN(C)CC2)c2ccccc2)ccc1-c1cn[nH]c1` (stereo not drawn) [Example 13, 3-methoxy-N-(2-(4-methylpiperazin-1-yl)-1-phenylethyl)-4-(1H-pyrazol-4-yl)benzamide]: the IC50 worked out at 147 nM in experiment [1] and 77.1 nM in experiment [2].

On to `CCOc1cc(-c2cn[nH]c2)ccc1C(=O)N[C@H](C)c1cccc(OC)c1` [Example 313, 2-ethoxy-N-[(1R)-1-(3-methoxyphenyl)ethyl]-4-(1H-pyrazol-4-yl)benzamide], for which the half-inhibitory concentration (IC50) in experiment [1] stood at 21.1 nM; in experiment [2], 1.6 nM.

With `CC(O)c1cc(C(=O)N[C@H](C)c2ccccc2)ccc1-c1cn[nH]c1` (stereo partly drawn) [Example 280, 3-(1-hydroxyethyl)-N-[(1R)-1-phenylethyl]-4-(1H-pyrazol-4-yl)benzamide], the figures for the IC50 in experiment [1] and in experiment [2] were above 2000 nM and 443 nM, respectively.

For `COc1cc(-c2cn[nH]c2)ccc1C(=O)N[C@@H](Cc1ccccc1)[C@H](O)CO` [Example 217, N-[(2S,3S)-3,4-dihydroxy-1-phenylbutan-2-yl]-2-methoxy-4-(1H-pyrazol-4-yl)benzamide], the half-maximal inhibitory concentration (IC50) in experiment [1] was determined as 15.4 nM; in experiment [2] it was 12.9 nM.

In the case of `COc1ccc(F)c(C(C)NC(=O)c2ccc(-c3c[nH]nc3C)cc2OC)c1` (stereo not drawn) [Example 147, N-[1-(2-fluoro-5-methoxyphenyl)ethyl]-2-methoxy-4-(3-methyl-1H-pyrazol-4-yl)benzamide], the 50% inhibitory concentration (IC50) in experiment [1] worked out at 23.5 nM; in experiment [2], 5.09 nM.

In the case of `COc1cccc(CNC(=O)c2ccc(-c3cn[nH]c3)c(F)c2)c1` [Example 59, 3-Fluoro-N-(3-methoxybenzyl)-4-(1H-pyrazol-4-yl)benzamide], the IC50 in experiment [1] worked out at 33.3 nM; in experiment [2], 18.9 nM.

`COc1cc(CNC(=O)c2ccc(-c3cn[nH]c3)c(OC)c2)ccc1F` [Example 96, N-[(4-fluoro-3-methoxyphenyl)methyl]-3-methoxy-4-(1H-pyrazol-4-yl)benzamide]: the 50% inhibitory concentration (IC50) came out at 26 nM in experiment [1] and 2.41 nM in experiment [2].

Take `C[C@@H](NC(=O)c1cc(F)c(-c2cn[nH]c2)cc1OCCN(C)C)c1ccccc1` [Example 310, 2-[2-(dimethylamino)ethoxy]-5-fluoro-N-[(1R)-1-phenylethyl]-4-(1H-pyrazol-4-yl)benzamide]: half-maximal inhibition in experiment [2] (IC50) was put at 675 nM.

As for `COc1cc(C(=O)NC(C)Cc2ccc(F)cc2)ccc1-c1cn[nH]c1` (stereo not drawn) [Example 111, N-[1-(4-fluorophenyl)propan-2-yl]-3-methoxy-4-(1H-pyrazol-4-yl)benzamide], in experiment [1], the IC50 was determined as 35.8 nM.

With `COc1cc(C(=O)NCc2cccc(O)c2)ccc1-c1cn[nH]c1` [Example 6, N-(3-hydroxybenzyl)-3-methoxy-4-(1H-pyrazol-4-yl)benzamide], in experiment [2], the IC50 is 0.85 nM.

As to `COc1cc(C(=O)NC(CNC(=O)OC(C)(C)C)c2ccccc2)ccc1-c1cn[nH]c1` (stereo not drawn) [Example 11, tert-butyl (2-(3-methoxy-4-(1H-pyrazol-4-yl)benzamido)-2-phenylethyl) carbamate], the IC50 in experiment [1] stood at 108 nM.

Compound `CNC(=O)c1cccc(CNC(=O)c2ccc(-c3cn[nH]c3)c(OC)c2)c1` [Example 65, 3-Methoxy-N-(3-(methylcarbamoyl)benzyl)-4-(1H-pyrazol-4-yl)benzamide] gave an IC50 in experiment [2] of 0.85 nM. In other words, the sub-nanomolar range.
